Measurements: PubChem BioAssay AID2060898 (Molecular Pharmacology Branch, DTP, NCI, 2025)

Test system: 616215-338-R-J1-PDC complex spheroid viability
Assay: Anticancer human tumor 616215-338-R-J1-PDC patient-derived colon adenocarcinoma cell line growth inhibition [RAS]
Details: for IC50: curve of first compound; for viability, T/C: stronger effect = lower value
Summary of the method: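 Multi-cell-type spheroids: tumor cells plus HUVEC endothelial cells and mesenchymal stem cells. RAS-pathway inhibitors were combined with targeted agents, each dosed in half-log steps down from clinical Cmax, or from 10 microM when Cmax was unknown.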
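Also: spheroids exposed to agents for seven days before viability readout.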
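For viability, T/C in this document: 100% = DMSO vehicle control viability.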

**Q.** Which IC50 (second compound 0.000949 µM) does the source give for C=CC(=O)N1CCN(c2nc(OCC3CCCN3C)nc3c(F)c(-c4nc(N)cc(C)c4C(F)(F)F)c(Cl)cc23)C(C)C1 (centres undefined) + CCn1c(-c2cc(N3CCN(C)CC3)cnc2C(C)OC)c2c3cc(ccc31)-c1csc(n1)CC(NC(=O)C1CC1C)C(=O)N1CCCC(N1)C(=O)OCC(C)(C)C2 here?
**A.** > 1000 nM

**Q.** And the IC50 (second compound 0.003 µM)?
**A.** > 1000 nM

**Q.** And the IC50 (second compound 0.00949 µM)?
**A.** > 1000 nM

**Q.** What about the IC50 (second compound 0.03 µM) of the same compound?
**A.** < 3.16 nM

**Q.** What about the IC50 (second compound 0.0949 µM) of the same compound?
**A.** < 3.16 nM

**Q.** What about the IC50 (second compound 0.3 µM) of the same compound?
**A.** < 3.16 nM

**Q.** What about the viability, T/C (second compound 0.000949 µM, first compound 0.00316 µM) of the same compound?
**A.** 117%

**Q.** And the viability, T/C (second compound 0.000949 µM, first compound 0.01 µM)?
**A.** 103%

**Q.** What about the viability, T/C (second compound 0.000949 µM, first compound 0.0316 µM) of the same compound?
**A.** 108%

**Q.** What about the viability, T/C (second compound 0.000949 µM, first compound 0.1 µM) of the same compound?
**A.** 110%

**Q.** What about the viability, T/C (second compound 0.000949 µM, first compound 0.316 µM) of the same compound?
**A.** 109%

**Q.** And the viability, T/C (second compound 0.000949 µM, first compound 1 µM)?
**A.** 107%

**Q.** And the viability, T/C (second compound 0.003 µM, first compound 0.00316 µM)?
**A.** 114%

**Q.** What about the viability, T/C (second compound 0.003 µM, first compound 0.01 µM) of the same compound?
**A.** 109%

**Q.** And the viability, T/C (second compound 0.003 µM, first compound 0.0316 µM)?
**A.** 111%

**Q.** What about the viability, T/C (second compound 0.003 µM, first compound 0.1 µM) of the same compound?
**A.** 109%

**Q.** What about the viability, T/C (second compound 0.003 µM, first compound 0.316 µM) of the same compound?
**A.** 113%

**Q.** What about the viability, T/C (second compound 0.003 µM, first compound 1 µM) of the same compound?
**A.** 103%

**Q.** And the viability, T/C (second compound 0.00949 µM, first compound 0.00316 µM)?
**A.** 87.8%

**Q.** What about the viability, T/C (second compound 0.00949 µM, first compound 0.01 µM) of the same compound?
**A.** 77.8%

**Q.** And the viability, T/C (second compound 0.00949 µM, first compound 0.0316 µM)?
**A.** 81.5%

**Q.** What about the viability, T/C (second compound 0.00949 µM, first compound 0.1 µM) of the same compound?
**A.** 66.7%

**Q.** What about the viability, T/C (second compound 0.00949 µM, first compound 0.316 µM) of the same compound?
**A.** 73.8%

**Q.** What about the viability, T/C (second compound 0.00949 µM, first compound 1 µM) of the same compound?
**A.** 69.3%

**Q.** What about the viability, T/C (second compound 0.03 µM, first compound 0.00316 µM) of the same compound?
**A.** 43%

**Q.** And the viability, T/C (second compound 0.03 µM, first compound 0.01 µM)?
**A.** 55.5%

**Q.** What about the viability, T/C (second compound 0.03 µM, first compound 0.0316 µM) of the same compound?
**A.** 49.3%

**Q.** What about the viability, T/C (second compound 0.03 µM, first compound 0.1 µM) of the same compound?
**A.** 42.7%

**Q.** What about the viability, T/C (second compound 0.03 µM, first compound 0.316 µM) of the same compound?
**A.** 55.4%

**Q.** What about the viability, T/C (second compound 0.03 µM, first compound 1 µM) of the same compound?
**A.** 49.4%

**Q.** And the viability, T/C (second compound 0.0949 µM, first compound 0.00316 µM)?
**A.** 35%

**Q.** And the viability, T/C (second compound 0.0949 µM, first compound 0.01 µM)?
**A.** 30.8%

**Q.** What about the viability, T/C (second compound 0.0949 µM, first compound 0.0316 µM) of the same compound?
**A.** 42.2%

**Q.** What about the viability, T/C (second compound 0.0949 µM, first compound 0.1 µM) of the same compound?
**A.** 37.5%

**Q.** What about the viability, T/C (second compound 0.0949 µM, first compound 0.316 µM) of the same compound?
**A.** 49.4%

**Q.** What about the viability, T/C (second compound 0.0949 µM, first compound 1 µM) of the same compound?
**A.** 35.9%

**Q.** What about the viability, T/C (second compound 0.3 µM, first compound 0.00316 µM) of the same compound?
**A.** 40.3%

**Q.** What about the viability, T/C (second compound 0.3 µM, first compound 0.01 µM) of the same compound?
**A.** 31.8%

**Q.** What about the viability, T/C (second compound 0.3 µM, first compound 0.0316 µM) of the same compound?
**A.** 36%

**Q.** And the viability, T/C (second compound 0.3 µM, first compound 0.1 µM)?
**A.** 42.6%

**Q.** And the viability, T/C (second compound 0.3 µM, first compound 0.316 µM)?
**A.** 42.8%

**Q.** What about the viability, T/C (second compound 0.3 µM, first compound 1 µM) of the same compound?
**A.** 43.4%

**Q.** How did the IC50 (second compound 0.000949 µM) turn out when CC1(C)CCC(Nc2ncc(C(F)(F)F)c(-c3c[nH]c4c(P(C)(C)=O)c(C#N)ccc34)n2)CN1 (centres undefined) + CCn1c(-c2cc(N3CCN(C)CC3)cnc2C(C)OC)c2c3cc(ccc31)-c1csc(n1)CC(NC(=O)C1CC1C)C(=O)N1CCCC(N1)C(=O)OCC(C)(C)C2 was run?
**A.** 17.7 nM

**Q.** What about the IC50 (second compound 0.003 µM) of the same compound?
**A.** 14.1 nM

**Q.** What about the IC50 (second compound 0.00949 µM) of the same compound?
**A.** 7.66 nM

**Q.** And the IC50 (second compound 0.03 µM)?
**A.** 7.94 nM

**Q.** And the IC50 (second compound 0.0949 µM)?
**A.** < 0.949 nM

**Q.** And the IC50 (second compound 0.3 µM)?
**A.** < 0.949 nM

**Q.** What about the viability, T/C (second compound 0.000949 µM, first compound 0.000949 µM) of the same compound?
**A.** 117%

**Q.** What about the viability, T/C (second compound 0.000949 µM, first compound 0.003 µM) of the same compound?
**A.** 92.4%

**Q.** And the viability, T/C (second compound 0.000949 µM, first compound 0.00949 µM)?
**A.** 65.2%

**Q.** And the viability, T/C (second compound 0.000949 µM, first compound 0.03 µM)?
**A.** 35.7%

**Q.** And the viability, T/C (second compound 0.000949 µM, first compound 0.0949 µM)?
**A.** 32.2%

**Q.** And the viability, T/C (second compound 0.000949 µM, first compound 0.3 µM)?
**A.** 39.1%

**Q.** And the viability, T/C (second compound 0.003 µM, first compound 0.000949 µM)?
**A.** 122%

**Q.** What about the viability, T/C (second compound 0.003 µM, first compound 0.003 µM) of the same compound?
**A.** 98.1%

**Q.** What about the viability, T/C (second compound 0.003 µM, first compound 0.00949 µM) of the same compound?
**A.** 56.4%

**Q.** And the viability, T/C (second compound 0.003 µM, first compound 0.03 µM)?
**A.** 37%

**Q.** And the viability, T/C (second compound 0.003 µM, first compound 0.0949 µM)?
**A.** 37.5%

**Q.** And the viability, T/C (second compound 0.003 µM, first compound 0.3 µM)?
**A.** 39.6%

**Q.** What about the viability, T/C (second compound 0.00949 µM, first compound 0.000949 µM) of the same compound?
**A.** 82.9%

**Q.** What about the viability, T/C (second compound 0.00949 µM, first compound 0.003 µM) of the same compound?
**A.** 73.8%

**Q.** And the viability, T/C (second compound 0.00949 µM, first compound 0.00949 µM)?
**A.** 44.6%

**Q.** What about the viability, T/C (second compound 0.00949 µM, first compound 0.03 µM) of the same compound?
**A.** 38.6%

**Q.** And the viability, T/C (second compound 0.00949 µM, first compound 0.0949 µM)?
**A.** 37.1%

**Q.** What about the viability, T/C (second compound 0.00949 µM, first compound 0.3 µM) of the same compound?
**A.** 40.8%

**Q.** What about the viability, T/C (second compound 0.03 µM, first compound 0.000949 µM) of the same compound?
**A.** 65.7%

**Q.** And the viability, T/C (second compound 0.03 µM, first compound 0.003 µM)?
**A.** 61.7%

**Q.** What about the viability, T/C (second compound 0.03 µM, first compound 0.00949 µM) of the same compound?
**A.** 47.6%

**Q.** What about the viability, T/C (second compound 0.03 µM, first compound 0.03 µM) of the same compound?
**A.** 32.4%

**Q.** And the viability, T/C (second compound 0.03 µM, first compound 0.0949 µM)?
**A.** 39%

**Q.** And the viability, T/C (second compound 0.03 µM, first compound 0.3 µM)?
**A.** 40.1%

**Q.** And the viability, T/C (second compound 0.0949 µM, first compound 0.000949 µM)?
**A.** 45.8%

**Q.** And the viability, T/C (second compound 0.0949 µM, first compound 0.003 µM)?
**A.** 44.3%

**Q.** And the viability, T/C (second compound 0.0949 µM, first compound 0.00949 µM)?
**A.** 39.2%

**Q.** What about the viability, T/C (second compound 0.0949 µM, first compound 0.03 µM) of the same compound?
**A.** 39.3%

**Q.** And the viability, T/C (second compound 0.0949 µM, first compound 0.0949 µM)?
**A.** 36.9%

**Q.** What about the viability, T/C (second compound 0.0949 µM, first compound 0.3 µM) of the same compound?
**A.** 32.9%

**Q.** What about the viability, T/C (second compound 0.3 µM, first compound 0.000949 µM) of the same compound?
**A.** 37.5%

**Q.** What about the viability, T/C (second compound 0.3 µM, first compound 0.003 µM) of the same compound?
**A.** 46%

**Q.** And the viability, T/C (second compound 0.3 µM, first compound 0.00949 µM)?
**A.** 42%

**Q.** And the viability, T/C (second compound 0.3 µM, first compound 0.03 µM)?
**A.** 32.6%

**Q.** What about the viability, T/C (second compound 0.3 µM, first compound 0.0949 µM) of the same compound?
**A.** 38.5%

**Q.** What about the viability, T/C (second compound 0.3 µM, first compound 0.3 µM) of the same compound?
**A.** 39.2%
